Test results from PubChem BioAssay (NCI).
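Briefly, cells in 96-well plates were exposed to five compound concentrations for 48 h, and endpoints were estimated by linear interpolation. At the TGI there is no net growth.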

What was measured:
Assay in all cases: NCI tumour cell line growth inhibition, 48 h
[1] = tested on: SNB-75 CNS
[2] = tested on: HOP-18 NSCLC
[3] = tested on: CCRF-CEM leukemia
[4] = tested on: IGROV1 ovarian
[5] = tested on: 786-0 renal
[6] = tested on: SW-620 colon
[7] = tested on: A549 NSCLC
[8] = tested on: OVCAR-8 ovarian
[9] = tested on: K-562 leukemia
[10] = tested on: HOP-62 NSCLC
[11] = tested on: ACHN renal
[12] = tested on: SF-268 CNS
[13] = tested on: COLO 205 colon
[14] = tested on: NCI-H226 lung
[15] = tested on: SF-295 CNS
[16] = tested on: SK-MEL-28 melanoma
[17] = tested on: UACC-257 melanoma
[18] = tested on: NCI-H460 lung
[19] = tested on: NCI-H23 lung
[20] = tested on: HL-60(TB) leukemia
[21] = tested on: KM12 colon
[22] = tested on: DLD-1 colon
[23] = tested on: M19-MEL melanoma
[24] = tested on: HCT-15 colon
[25] = tested on: UO-31 renal
[26] = tested on: LXFL 529 NSCLC
[27] = tested on: U251 CNS
[28] = tested on: HOP-92 NSCLC
[29] = tested on: DMS 114 small cell lung
[30] = tested on: SR leukemia
[31] = tested on: OVCAR-4 ovarian
[32] = tested on: HT29 colon
[33] = tested on: TK-10 renal
[34] = tested on: OVCAR-3 ovarian
[35] = tested on: SK-MEL-2 melanoma
[36] = tested on: SN12C renal
[37] = tested on: SF-539 CNS
[38] = tested on: HCC-2998 colon
[39] = tested on: A498 renal
[40] = tested on: NCI-H522 lung
[41] = tested on: SK-MEL-5 melanoma
[42] = tested on: MALME-3M melanoma
[43] = tested on: SK-OV-3 ovarian
[44] = tested on: MOLT-4 leukemia
[45] = tested on: UACC-62 melanoma
[46] = tested on: RPMI-8226 leukemia
[47] = tested on: M14 melanoma
[48] = tested on: SNB-78 CNS
[49] = tested on: HCT-116 colon
[50] = tested on: DMS 273 small cell lung
[51] = tested on: OVCAR-5 ovarian

Measured: TGI

Clc1ccc(C2=NOC(C3CCCCC3)C2)cc1 (stereo unspecified)
> 100 µM: [1] | [2] | [3] | [4] | [5] | [6] | [7] | [8] | [9] | [10] | [11] | [12] | [13] | [14] | [15] | [16] | [17] | [18] | [19] | [20] | [21] | [22] | [23] | [24] | [25] | [26] | [27] | [28] | [29] | [30] | [31] | [32] | [33] | [34] | [35] | [36] | [37] | [38] | [39] | [40] | [41] | [42] | [43] | [44] | [45] | [46] | [47] | [48] | [49] | [50] | [51]
